Results from PubChem BioAssay AID328 (DTP/NCI, 2004).
Where “and” joins values, the source holds several entries; their conditions need not be identical. Equal entries are not always repeated. Toxic doses and inconclusive results are not listed.

Tested on: BDF1 mice, P388 leukemia ip, median survival T/C
Assay: NCI In Vivo Anticancer Drug Screen. Data for tumor model P388 Leukemia (intraperitoneal) in B6D2F1 (BDF1) mice
Conditions: endpoint: median survival time, higher = longer survival
In short: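 In tumour-bearing mice, survival after compound treatment is set against the vehicle group and given as a quotient.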

[1] = dose: 100.0 mg/kg/injection, schedule: Q01DX009 (ip), vehicle: saline with Tween-80
[2] = dose: 100.0 mg/kg/injection, schedule: Q04DX003 (ip), vehicle: saline with Tween-80
[3] = dose: 200.0 mg/kg/injection, schedule: Q01DX009 (ip), vehicle: saline with Tween-80
[4] = dose: 200.0 mg/kg/injection, schedule: Q04DX003 (ip), vehicle: saline with Tween-80
[5] = dose: 400.0 mg/kg/injection, schedule: Q04DX003 (ip), vehicle: saline with Tween-80
[6] = dose: 25.0 mg/kg/injection, schedule: Q01DX009 (ip), vehicle: saline with Tween-80
[7] = dose: 50.0 mg/kg/injection, schedule: Q01DX009 (ip), vehicle: saline with Tween-80
[8] = dose: 100.0 mg/kg/injection, schedule: Q01DX009 (ip), vehicle: Klucel (hydroxypropylcellulose) (HPC)
[9] = dose: 200.0 mg/kg/injection, schedule: Q01DX009 (ip), vehicle: Klucel (hydroxypropylcellulose) (HPC)
[10] = dose: 50.0 mg/kg/injection, schedule: Q01DX009 (ip), vehicle: saline
[11] = dose: 100.0 mg/kg/injection, schedule: Q01DX001 (ip), vehicle: saline with Tween-80
[12] = dose: 200.0 mg/kg/injection, schedule: Q01DX001 (ip), vehicle: saline with Tween-80
[13] = dose: 400.0 mg/kg/injection, schedule: Q01DX001 (ip), vehicle: saline with Tween-80
[14] = dose: 50.0 mg/kg/injection, schedule: Q04DX003 (ip), vehicle: saline with Tween-80
[15] = dose: 100.0 mg/kg/injection, schedule: Q01DX001 (ip), vehicle: Klucel (hydroxypropylcellulose) (HPC)
[16] = dose: 200.0 mg/kg/injection, schedule: Q01DX001 (ip), vehicle: Klucel (hydroxypropylcellulose) (HPC)
[17] = dose: 400.0 mg/kg/injection, schedule: Q01DX001 (ip), vehicle: Klucel (hydroxypropylcellulose) (HPC)

CC1CN(Cc2cccc(C#N)c2)CC(C)N1 (stereo unspecified)
T/C (dose: 6.25 mg/kg/injection, schedule: Q01DX009 (ip), vehicle: water): 95 % of control
T/C (dose: 12.5 mg/kg/injection, schedule: Q01DX009 (ip), vehicle: water): 110 % of control
T/C (dose: 25.0 mg/kg/injection, schedule: Q01DX009 (ip), vehicle: water): 101 % of control
T/C (dose: 25.0 mg/kg/injection, schedule: Q04DX003 (ip), vehicle: water): 101 % of control
T/C (dose: 50.0 mg/kg/injection, schedule: Q01DX009 (ip), vehicle: water): 95 % of control
T/C (dose: 50.0 mg/kg/injection, schedule: Q04DX003 (ip), vehicle: water): 100 % of control
T/C (dose: 100.0 mg/kg/injection, schedule: Q01DX009 (ip), vehicle: water): 110 % of control
T/C (dose: 100.0 mg/kg/injection, schedule: Q04DX003 (ip), vehicle: water): 111 % of control

CC(C)CCS(=O)(=O)OCCCCOS(=O)(=O)CCC(C)C
T/C [1]: 114 % of control
T/C [2]: 100 % of control
T/C [3]: 109 % of control
T/C [4]: 100 % of control
T/C (dose: 400.0 mg/kg/injection, schedule: Q01DX009 (ip), vehicle: saline with Tween-80): 114 % of control
T/C [5]: 104 % of control

Cc1nc2nc(C(F)(F)F)[nH]c2nc1C
T/C [6]: 99 % of control
T/C [7]: 105 % of control
T/C [1]: 102 % of control
T/C [3]: 94 % of control

COc1ccc2c3c(ccc2c1)C(=O)C(C)(C#N)CC3 (stereo unspecified)
T/C (dose: 50.0 mg/kg/injection, schedule: Q01DX009 (ip), vehicle: Klucel (hydroxypropylcellulose) (HPC)): 104 % of control
T/C [8]: 95 % of control
T/C (dose: 100.0 mg/kg/injection, schedule: Q04DX003 (ip), vehicle: other): 95 % of control
T/C [9]: 100 % of control
T/C (dose: 200.0 mg/kg/injection, schedule: Q04DX003 (ip), vehicle: other): 100 % of control
T/C (dose: 400.0 mg/kg/injection, schedule: Q04DX003 (ip), vehicle: other): 95 % of control

O=C1N(c2ccccc2)CCC12CCNCC2
T/C [10]: 94 % of control
T/C (dose: 100.0 mg/kg/injection, schedule: Q01DX009 (ip), vehicle: saline): 94 % of control

C=C1C(=O)O[C@@H]2C[C@@H](C)[C@@H]3[C@@H](OC4OC(COC(C)=O)C(O)C(O)C4O)CC(=O)[C@@]3(C)C[C@H]12 (stereo partly specified)
T/C (dose: 2.8 mg/kg/injection, schedule: Q01DX009 (ip), vehicle: saline): 100 % of control
T/C (dose: 4.2 mg/kg/injection, schedule: Q01DX009 (ip), vehicle: saline): 122 % of control
T/C [10]: 100 % of control
T/C (dose: 75.0 mg/kg/injection, schedule: Q01DX009 (ip), vehicle: saline): 105 % of control

O=C1c2c(Cl)cccc2C(O)(c2ccccc2)c2cccc(Cl)c21
T/C (dose: 50.0 mg/kg/injection, schedule: Q01DX009 (ip), vehicle: other): 100 % of control
T/C (dose: 100.0 mg/kg/injection, schedule: Q01DX009 (ip), vehicle: other): 92 % of control
T/C (dose: 200.0 mg/kg/injection, schedule: Q01DX009 (ip), vehicle: other): 105 % of control

CCCCCCCCCCCCCCCC(=O)NCCO
T/C (dose: 100.0 mg/kg/injection, schedule: Q04DX003 (ip), vehicle: saline sonified): 91 % of control

CC(C(=O)O)C(=O)O.[NH2-].[NH2-].[Pt+2]
T/C (dose: 6.25 mg/kg/injection, schedule: Q01DX009 (ip), vehicle: saline): 93 % of control
T/C (dose: 25.0 mg/kg/injection, schedule: Q01DX009 (ip), vehicle: saline): 214 % of control

CC(C)(C)c1ccc(OS(=O)(=O)c2ccccc2[N+](=O)[O-])cc1
T/C [11]: 104 % of control
T/C [12]: 100 % of control
T/C [13]: 113 % of control

CC(Oc1ccc2ccccc2c1I)C(=O)O (stereo unspecified)
T/C (dose: 50.0 mg/kg/injection, schedule: Q01DX005 (ip), vehicle: saline with Tween-80): 91 % of control
T/C (dose: 100.0 mg/kg/injection, schedule: Q01DX005 (ip), vehicle: saline with Tween-80): 113 % of control
T/C (dose: 200.0 mg/kg/injection, schedule: Q01DX005 (ip), vehicle: saline with Tween-80): 106 % of control

Clc1ccc2c(c1)nnn2OC1CCCCCC1
T/C [7]: 101 % of control
T/C [1]: 97 % of control
T/C [3]: 108 % of control

CC1(C)CCC(C#N)=C1N
T/C (dose: 12.5 mg/kg/injection, schedule: Q01DX009 (ip), vehicle: saline with Tween-80): 95 % of control
T/C [6]: 91 % of control
T/C [7]: 95 % of control

O=C1NS(=O)(=O)c2ccccc21
T/C [7]: 100 % of control
T/C [1]: 90 % of control
T/C [3]: 103 % of control

Nc1nc(N)c2c(n1)CCC(S(=O)(=O)c1ccc3ccccc3c1)C2 (stereo unspecified)
T/C [7]: 103 % of control and 114 % of control
T/C [1]: 122 % of control and 124 % of control
T/C [3]: 123 % of control

Cc1ccsc1/C=N/NC(N)=S
T/C [14]: 117 % of control
T/C [2]: 117 % of control
T/C [4]: 115 % of control
T/C [5]: 92 % of control

Nc1nc(SCC(=O)c2ccccc2)c2[nH]cnc2n1
T/C (dose: 100.0 mg/kg/injection, schedule: Q01DX009 (ip), vehicle: saline sonified): 115 % of control
T/C [2]: 109 % of control
T/C (dose: 200.0 mg/kg/injection, schedule: Q01DX009 (ip), vehicle: saline sonified): 110 % of control
T/C [4]: 113 % of control
T/C (dose: 400.0 mg/kg/injection, schedule: Q01DX009 (ip), vehicle: saline sonified): 110 % of control
T/C [5]: 118 % of control

O=C1c2ccccc2CCC1(Br)C(Br)c1ccccc1 (stereo unspecified)
T/C [15]: 100 % of control
T/C [8]: 100 % of control
T/C (dose: 100.0 mg/kg/injection, schedule: Q04DX003 (ip), vehicle: Klucel (hydroxypropylcellulose) (HPC)): 113 % of control
T/C (dose: 130.0 mg/kg/injection, schedule: Q01DX001 (ip), vehicle: Klucel (hydroxypropylcellulose) (HPC)): 90 % of control
T/C (dose: 133.0 mg/kg/injection, schedule: Q01DX001 (ip), vehicle: Klucel (hydroxypropylcellulose) (HPC)): 100 % of control
T/C [16]: 100 % of control and 109 % of control
T/C [9]: 100 % of control
T/C (dose: 200.0 mg/kg/injection, schedule: Q04DX003 (ip), vehicle: Klucel (hydroxypropylcellulose) (HPC)): 113 % of control
T/C (dose: 300.0 mg/kg/injection, schedule: Q01DX001 (ip), vehicle: Klucel (hydroxypropylcellulose) (HPC)): 95 % of control and 100 % of control
T/C [17]: 112 % of control
T/C (dose: 400.0 mg/kg/injection, schedule: Q01DX009 (ip), vehicle: Klucel (hydroxypropylcellulose) (HPC)): 100 % of control
T/C (dose: 400.0 mg/kg/injection, schedule: Q04DX003 (ip), vehicle: Klucel (hydroxypropylcellulose) (HPC)): 121 % of control

Oc1ccccc1O.[O-]c1ccccc1[O-].[O-]c1ccccc1[O-].[O]=[V+2]
T/C (dose: 9.37 mg/kg/injection, schedule: Q01DX009 (ip), vehicle: saline): 89 % of control
T/C (dose: 9.37 mg/kg/injection, schedule: Q04DX003 (ip), vehicle: saline): 100 % of control
T/C (dose: 18.75 mg/kg/injection, schedule: Q01DX009 (ip), vehicle: saline): 94 % of control
T/C (dose: 18.75 mg/kg/injection, schedule: Q04DX003 (ip), vehicle: saline): 109 % of control
T/C (dose: 24.0 mg/kg/injection, schedule: Q04DX003 (ip), vehicle: saline): 104 % of control
T/C (dose: 24.7 mg/kg/injection, schedule: Q04DX003 (ip), vehicle: saline): 100 % of control
T/C (dose: 37.0 mg/kg/injection, schedule: Q04DX003 (ip), vehicle: saline): 105 % of control
T/C (dose: 37.5 mg/kg/injection, schedule: Q01DX009 (ip), vehicle: saline): 89 % of control
T/C (dose: 37.5 mg/kg/injection, schedule: Q04DX003 (ip), vehicle: saline): 100 % of control
T/C (dose: 55.0 mg/kg/injection, schedule: Q04DX003 (ip), vehicle: saline): 100 % of control
T/C (dose: 55.5 mg/kg/injection, schedule: Q04DX003 (ip), vehicle: saline): 90 % of control

O=S(=O)(NCCO)c1ccc(Cl)cc1
T/C [15]: 100 % of control
T/C [16]: 100 % of control
T/C [17]: 100 % of control

CCCN(CCC)CCSC(=S)NCCOC
T/C [7]: 100 % of control
T/C [1]: 113 % of control

O=C(Cl)c1cc2ccccc2o1
T/C [11]: 91 % of control
T/C [12]: 108 % of control
T/C [13]: 91 % of control

NC(=O)N/C=C1\CCCOC1=O
T/C [14]: 111 % of control
T/C [2]: 101 % of control
T/C [4]: 104 % of control
T/C [5]: 109 % of control

N#CC(C#N)c1nc2cccnc2s1
T/C [2]: 109 % of control
T/C [4]: 93 % of control
